In publication PMC3177608 (ACS chemical biology, 2011):
pIC50: −log10 of the molar value. Where “and” joins values, the source holds several entries; their conditions need not be identical. Identical values can stand only once. Entries after “also recorded” stand apart in the source; their conditions may differ.

Columns and labels:
Kir2.1 [1] = molecular target: T1, Kir2.1 (Mus musculus, UniProt P35561); test: whole cell
T1 sequence (P35561 1-428): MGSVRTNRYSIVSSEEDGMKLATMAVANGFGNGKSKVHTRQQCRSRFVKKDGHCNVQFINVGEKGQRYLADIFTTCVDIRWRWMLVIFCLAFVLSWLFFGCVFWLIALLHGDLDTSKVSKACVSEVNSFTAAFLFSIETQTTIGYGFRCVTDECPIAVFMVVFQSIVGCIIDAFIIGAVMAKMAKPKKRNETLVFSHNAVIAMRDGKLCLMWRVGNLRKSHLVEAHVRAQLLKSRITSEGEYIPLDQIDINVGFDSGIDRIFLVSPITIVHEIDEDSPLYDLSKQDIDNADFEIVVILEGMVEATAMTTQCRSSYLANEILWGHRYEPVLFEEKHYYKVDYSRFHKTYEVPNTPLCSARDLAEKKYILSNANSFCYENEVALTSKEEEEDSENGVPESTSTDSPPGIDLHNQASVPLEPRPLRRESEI

[2] = PubChem database; cited from earlier work
C25 N172D = C25 N172D (Mus musculus, UniProt P35561, A121P/A131S/A173S/C101L/C149F/C169V/C89I/D114R/D152E/DEL116-120/E125N/E153Q/F103W/F129M/F98L/G111K/I106V/I137L/I156T/I175M/I176C/I87V/INS113PEFYPPDN/L105V/L108Y/L109V/L90T/L94G/L97F/M160L/M180L/P155A/S124E/S128G/T141V/V102L/V126I/V158I/V161L/V162I/V167L/V179I/V86T/V93L/W104Y); test: patch clamp, C25 N172D mutant; settings: pH 7.4
hERG = hERG (Homo sapiens, UniProt Q12809); test: Ricerca Lead Profiling Screen radioligand binding
3A4 = 3A4 (Homo sapiens, UniProt P08684); test: CYP450 inhibition assay
Kir2.1 D172N/I176C = Kir2.1 D172N/I176C (Mus musculus, UniProt P35561, D172N/I176C); test: patch clamp, Kir2.1 D172N/I176C mutant
N-type calcium channels = N-type calcium channels (Rattus norvegicus, UniProt Q02294); test: Ricerca Lead Profiling Screen radioligand binding
hKir7.1 = hKir7.1 (Homo sapiens, UniProt O60928); test: whole cell patch clamp, Kir7.1; settings: IC50 Kir7.1, pH 7.4
Kir1.1 = molecular target: T2, Kir1.1 (Rattus norvegicus, UniProt P35560); test: whole cell patch clamp, Kir1.1; assay type: cell-based
T2 sequence (P35560 1-391): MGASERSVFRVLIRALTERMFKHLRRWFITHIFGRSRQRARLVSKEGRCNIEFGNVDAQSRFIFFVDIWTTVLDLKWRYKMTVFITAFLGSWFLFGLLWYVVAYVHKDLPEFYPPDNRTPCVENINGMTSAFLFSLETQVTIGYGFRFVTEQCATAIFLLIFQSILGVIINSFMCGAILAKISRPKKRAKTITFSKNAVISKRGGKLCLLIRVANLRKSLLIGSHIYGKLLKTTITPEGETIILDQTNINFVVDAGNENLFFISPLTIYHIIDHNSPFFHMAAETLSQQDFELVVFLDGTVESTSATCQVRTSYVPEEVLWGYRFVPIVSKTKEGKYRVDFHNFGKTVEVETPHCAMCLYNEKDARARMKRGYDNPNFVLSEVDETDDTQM

Kir1.1 N171D = Kir1.1 N171D (Rattus norvegicus, UniProt P35560, N171D); test: patch clamp, Kir1.1 N171D mutant
C25 chimera = molecular target: T3, C25 chimera (Mus musculus, UniProt P35561, A121P/A131S/A173S/C101L/C149F/C169V/C89I/D114R/D152E/D172N/DEL116-120/E125N/E153Q/F103W/F129M/F98L/G111K/I106V/I137L/I156T/I175M/I176C/I87V/INS113PEFYPPDN/L105V/L108Y/L109V/L90T/L94G/L97F/M160L/M180L/P155A/S124E/S128G/T141V/V102L/V126I/V158I/V161L/V162I/V167L/V179I/V86T/V93L/W104Y); test: patch clamp, C25 chimera; assay type: cell-based, mouse/rat; settings: for inhibition of C25 current: pH 7.4
T3 sequence (P35561 with tags, fused parts or gaps V86T/I87V/C89I/L90T/V93L/L94G/L97F/F98L/C101L/V102L/F103W/W104Y/L105V/I106V/L108Y/L109V/G111K/INS113PEFYPPDN/D114R/DEL116-120/A121P/S124E/E125N/V126I/S128G/F129M/A131S/I137L/T141V/C149F/D152E/E153Q/P155A/I156T/V158I/M160L/V161L/V162I/V167L/C169V/D172N/A173S/I175M/I176C/V179I/M180L): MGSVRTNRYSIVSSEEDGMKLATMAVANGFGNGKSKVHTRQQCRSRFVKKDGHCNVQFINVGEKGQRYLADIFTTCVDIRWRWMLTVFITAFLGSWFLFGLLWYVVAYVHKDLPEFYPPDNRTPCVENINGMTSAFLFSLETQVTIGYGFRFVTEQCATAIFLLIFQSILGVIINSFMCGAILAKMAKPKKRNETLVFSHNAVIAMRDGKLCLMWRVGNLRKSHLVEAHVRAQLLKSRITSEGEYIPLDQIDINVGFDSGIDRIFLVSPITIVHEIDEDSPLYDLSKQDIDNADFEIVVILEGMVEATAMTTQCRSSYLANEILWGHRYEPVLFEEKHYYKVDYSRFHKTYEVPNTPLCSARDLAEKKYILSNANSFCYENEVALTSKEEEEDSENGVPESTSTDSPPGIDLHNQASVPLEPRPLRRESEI

2C9 = 2C9 (Homo sapiens, UniProt P11712); test: CYP450 inhibition assay
[3] = Ricerca Lead Profiling Screen, 68 radioligand binding assays; settings: GPCRs, ion channels and transporters
Kir2.1 D172N = Kir2.1 D172N (Mus musculus, UniProt P35561, D172N); test: patch clamp, Kir2.1 D172N mutant
L-type calcium channels = test: Ricerca Lead Profiling Screen radioligand binding
[4] = intrinsic clearance, human
rKir4.1 = rKir4.1 (Rattus norvegicus, UniProt P49655); test: whole cell patch clamp, Kir4.1
2D6 = 2D6 (Homo sapiens, UniProt P10635)
C25 N172D/M175I/C176I = C25 N172D/M175I/C176I (Mus musculus, UniProt P35561, A121P/A131S/A173S/C101L/C149F/C169V/C89I/D114R/D152E/DEL116-120/E125N/E153Q/F103W/F129M/F98L/G111K/I106V/I137L/I156T/I87V/INS113PEFYPPDN/L105V/L108Y/L109V/L90T/L94G/L97F/M160L/M180L/P155A/S124E/S128G/T141V/V102L/V126I/V158I/V161L/V162I/V167L/V179I/V86T/V93L/W104Y); test: patch clamp, C25 N172D/M175I/C176I mutant
Kir2.1 [5] = molecular target: T1, Kir2.1; test: inside-out patch, compound applied from intracellular side; assay type: cell-based; settings: IC50 Kir2.1, inside-out patch, pH 6.5, applied from intracellular side
hKir2.3 = hKir2.3 (Homo sapiens, UniProt P48050); test: whole cell patch clamp, Kir2.3
Kir1.1 N171D/C175I = Kir1.1 N171D/C175I (Rattus norvegicus, UniProt P35560, C175I/N171D); test: patch clamp, Kir1.1 N171D/C175I mutant
hKir2.6 = hKir2.6 (Homo sapiens, UniProt B7U540); test: whole cell patch clamp, Kir2.6
1A2 = 1A2 (Homo sapiens, UniProt P05177)
KATP channel = settings: read-out: KATP channel IC50; cited from earlier work
[6] = read-out: IC50 Kir2.1, pH 8.5, manual patch clamp
[7] = pH 7.4, read-out: inhibition of C25 current

Chain of Kir1.1 N171D/C175I (P35560 whole entry N171D/C175I): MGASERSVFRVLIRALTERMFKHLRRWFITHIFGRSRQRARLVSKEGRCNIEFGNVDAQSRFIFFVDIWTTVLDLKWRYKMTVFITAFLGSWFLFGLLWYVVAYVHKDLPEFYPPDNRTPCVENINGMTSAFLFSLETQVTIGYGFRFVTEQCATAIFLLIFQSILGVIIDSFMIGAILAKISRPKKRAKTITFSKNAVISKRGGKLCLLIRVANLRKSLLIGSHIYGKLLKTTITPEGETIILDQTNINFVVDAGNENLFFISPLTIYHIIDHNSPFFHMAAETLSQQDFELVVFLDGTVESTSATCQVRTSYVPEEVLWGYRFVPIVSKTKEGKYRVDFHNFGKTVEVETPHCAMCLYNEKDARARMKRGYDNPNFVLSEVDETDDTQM
Chain of Kir1.1 N171D (P35560 whole entry N171D): as the sequence (P35560 whole entry N171D/C175I) above, with I175C counted along it
Chain of hKir7.1 (O60928 whole entry): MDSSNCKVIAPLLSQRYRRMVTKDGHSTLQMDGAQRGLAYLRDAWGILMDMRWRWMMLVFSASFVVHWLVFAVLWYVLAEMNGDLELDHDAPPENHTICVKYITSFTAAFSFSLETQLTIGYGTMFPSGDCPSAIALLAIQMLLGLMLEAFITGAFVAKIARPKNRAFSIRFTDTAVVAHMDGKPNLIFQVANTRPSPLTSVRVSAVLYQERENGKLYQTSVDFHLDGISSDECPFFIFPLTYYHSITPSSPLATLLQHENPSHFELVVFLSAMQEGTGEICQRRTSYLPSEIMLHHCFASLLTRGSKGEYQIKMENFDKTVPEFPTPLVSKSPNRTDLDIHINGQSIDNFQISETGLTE
Chain of rKir4.1 (P49655 whole entry): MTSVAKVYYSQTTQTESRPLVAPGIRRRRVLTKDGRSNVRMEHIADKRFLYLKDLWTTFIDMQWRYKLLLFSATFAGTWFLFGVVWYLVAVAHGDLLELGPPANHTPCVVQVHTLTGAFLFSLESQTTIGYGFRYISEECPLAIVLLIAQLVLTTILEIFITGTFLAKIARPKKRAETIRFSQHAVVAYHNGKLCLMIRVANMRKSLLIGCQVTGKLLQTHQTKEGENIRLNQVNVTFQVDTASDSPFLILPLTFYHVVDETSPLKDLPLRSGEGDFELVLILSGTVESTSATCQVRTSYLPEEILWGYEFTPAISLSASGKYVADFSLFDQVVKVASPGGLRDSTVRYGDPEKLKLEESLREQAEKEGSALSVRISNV
Chain of 2D6 (P10635 whole entry): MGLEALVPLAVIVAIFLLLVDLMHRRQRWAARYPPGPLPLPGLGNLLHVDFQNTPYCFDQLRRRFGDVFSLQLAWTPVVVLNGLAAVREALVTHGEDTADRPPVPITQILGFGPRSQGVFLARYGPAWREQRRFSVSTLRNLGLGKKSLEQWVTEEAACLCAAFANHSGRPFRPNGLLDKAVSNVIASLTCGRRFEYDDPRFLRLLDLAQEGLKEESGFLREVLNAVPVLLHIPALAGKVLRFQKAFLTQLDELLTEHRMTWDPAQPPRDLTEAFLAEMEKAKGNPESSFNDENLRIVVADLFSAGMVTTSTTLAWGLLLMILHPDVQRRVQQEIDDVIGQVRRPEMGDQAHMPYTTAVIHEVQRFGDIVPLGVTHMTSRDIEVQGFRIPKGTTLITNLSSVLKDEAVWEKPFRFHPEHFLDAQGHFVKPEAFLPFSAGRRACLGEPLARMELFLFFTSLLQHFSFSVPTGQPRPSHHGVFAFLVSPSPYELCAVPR
Chain of hKir2.3 (P48050 whole entry): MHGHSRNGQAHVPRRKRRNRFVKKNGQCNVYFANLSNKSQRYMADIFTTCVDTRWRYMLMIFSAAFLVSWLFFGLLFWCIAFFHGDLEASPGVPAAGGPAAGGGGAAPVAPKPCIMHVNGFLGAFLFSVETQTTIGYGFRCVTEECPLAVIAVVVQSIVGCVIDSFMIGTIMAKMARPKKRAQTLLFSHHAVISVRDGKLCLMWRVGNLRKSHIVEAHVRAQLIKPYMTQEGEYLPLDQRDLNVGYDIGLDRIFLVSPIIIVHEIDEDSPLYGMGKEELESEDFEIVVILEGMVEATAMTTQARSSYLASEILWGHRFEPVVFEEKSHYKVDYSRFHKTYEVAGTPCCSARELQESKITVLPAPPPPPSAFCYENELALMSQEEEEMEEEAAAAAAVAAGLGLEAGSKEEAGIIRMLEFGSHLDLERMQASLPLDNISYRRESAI
Chain of 2C9 (P11712 whole entry): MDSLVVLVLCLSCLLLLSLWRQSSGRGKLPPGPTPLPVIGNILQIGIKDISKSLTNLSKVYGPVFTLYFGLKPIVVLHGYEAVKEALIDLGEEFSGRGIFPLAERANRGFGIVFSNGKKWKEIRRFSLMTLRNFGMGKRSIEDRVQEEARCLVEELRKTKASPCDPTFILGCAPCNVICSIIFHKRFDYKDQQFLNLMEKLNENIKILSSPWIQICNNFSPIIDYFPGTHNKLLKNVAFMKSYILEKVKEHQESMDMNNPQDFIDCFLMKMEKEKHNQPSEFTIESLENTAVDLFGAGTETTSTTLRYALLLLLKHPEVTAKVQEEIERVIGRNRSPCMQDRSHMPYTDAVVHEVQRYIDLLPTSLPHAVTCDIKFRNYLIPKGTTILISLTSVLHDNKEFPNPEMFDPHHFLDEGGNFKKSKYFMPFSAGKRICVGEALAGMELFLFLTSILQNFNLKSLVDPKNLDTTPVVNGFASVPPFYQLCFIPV
Chain of 3A4 (P08684 whole entry): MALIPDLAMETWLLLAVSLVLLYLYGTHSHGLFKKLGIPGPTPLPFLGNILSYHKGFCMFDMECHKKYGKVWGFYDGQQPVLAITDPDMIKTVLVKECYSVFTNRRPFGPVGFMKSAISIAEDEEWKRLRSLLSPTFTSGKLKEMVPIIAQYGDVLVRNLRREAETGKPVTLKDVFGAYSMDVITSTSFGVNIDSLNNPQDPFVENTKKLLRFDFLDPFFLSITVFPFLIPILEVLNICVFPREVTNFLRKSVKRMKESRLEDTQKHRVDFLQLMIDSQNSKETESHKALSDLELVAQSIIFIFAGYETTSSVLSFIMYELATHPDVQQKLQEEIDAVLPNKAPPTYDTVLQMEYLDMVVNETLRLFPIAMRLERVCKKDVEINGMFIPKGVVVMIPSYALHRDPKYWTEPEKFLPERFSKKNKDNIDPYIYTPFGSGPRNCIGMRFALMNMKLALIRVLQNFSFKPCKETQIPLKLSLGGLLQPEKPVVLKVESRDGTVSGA
Chain of hKir2.6 (B7U540 whole entry): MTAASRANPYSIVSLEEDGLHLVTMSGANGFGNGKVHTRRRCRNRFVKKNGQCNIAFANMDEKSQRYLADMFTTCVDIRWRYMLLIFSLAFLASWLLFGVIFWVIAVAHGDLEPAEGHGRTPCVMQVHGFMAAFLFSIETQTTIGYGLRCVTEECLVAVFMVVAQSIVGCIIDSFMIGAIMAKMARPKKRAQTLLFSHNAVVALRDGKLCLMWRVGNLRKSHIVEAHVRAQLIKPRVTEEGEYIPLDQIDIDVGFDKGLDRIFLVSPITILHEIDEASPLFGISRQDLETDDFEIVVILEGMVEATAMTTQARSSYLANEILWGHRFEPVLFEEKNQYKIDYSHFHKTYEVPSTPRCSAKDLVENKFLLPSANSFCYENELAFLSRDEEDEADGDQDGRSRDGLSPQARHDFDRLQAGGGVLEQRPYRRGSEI
Chain of 1A2 (P05177 whole entry): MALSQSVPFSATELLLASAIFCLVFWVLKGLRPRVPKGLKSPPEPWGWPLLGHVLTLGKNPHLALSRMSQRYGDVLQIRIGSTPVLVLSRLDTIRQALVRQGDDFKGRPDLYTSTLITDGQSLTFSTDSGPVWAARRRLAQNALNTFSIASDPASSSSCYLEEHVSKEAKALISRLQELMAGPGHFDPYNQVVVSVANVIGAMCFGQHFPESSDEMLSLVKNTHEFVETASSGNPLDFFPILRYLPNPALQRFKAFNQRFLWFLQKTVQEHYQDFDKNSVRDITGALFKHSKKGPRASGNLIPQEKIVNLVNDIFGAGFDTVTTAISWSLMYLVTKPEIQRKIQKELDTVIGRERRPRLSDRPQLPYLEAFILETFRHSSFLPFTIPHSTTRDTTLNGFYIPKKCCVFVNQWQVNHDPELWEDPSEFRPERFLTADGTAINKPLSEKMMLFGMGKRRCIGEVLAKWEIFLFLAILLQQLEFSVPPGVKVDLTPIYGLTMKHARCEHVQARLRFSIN

COc1ccc(CNCc2ccc(Cl)cc2Cl)cc1 [13c]
pIC50 (Kir2.1 [1]; [6]): 5.41

COc1ccc(CNCc2ccc(Cl)cc2)cc1 [14a]
pIC50 (Kir2.1 [1]; [6]): 6.11

COc1ccc(CNCc2cccc(Cl)c2)cc1 [14b]
pIC50 (Kir2.1 [1]; [6]): 5.97

COc1ccc(CNCc2ccc(C(C)(C)C)cc2)cc1 [14d]
pIC50 (Kir2.1 [1]; [6]): 5.86

COc1ccc(CNCc2ccccc2C)cc1 [14e]
pIC50 (Kir2.1 [1]; [6]): 5.29

COc1ccc(CNCc2ccc(OC)cc2)cc1 [14g]
pIC50 (Kir2.1 [1]; read-out: IC50 Kir2.1, pH 7.4, whole cell, compound applied extracellularly): 4.46

COc1ccc(CNCc2ccccc2Cl)cc1 [14j]
pIC50 (Kir2.1 [1]; [6]): 4.86

COc1ccc(CNCc2cccc3ccccc23)cc1 [ML133, N-(4-methoxybenzyl)-1-(naphthalen-1-yl)methanamine]
activity in MLPCN HTS assays not based on Kir2.1 [2]: inactive in all but two of 213 MLPCN HTS assays | pIC50 (C25 N172D; IC50 C25 N172D): 4.12 | Hill coefficient (NH) C25 N172D (C25 N172D): 2.2 | protein bound (protein binding, rat): > 99% | activity at hERG (hERG): inactive | pIC50 (3A4): < 4.52 | Hill coefficient (NH) Kir2.1 D172N/I176C (Kir2.1 D172N/I176C): 1.8 | pIC50 (Kir2.1 D172N/I176C; IC50 Kir2.1 D172N/I176C, pH 7.4): 4.35 and 4.36 | activity at N-type calcium channels (N-type calcium channels): inactive | pIC50 (hKir7.1): 4.48 | pIC50 (Kir1.1; IC50 Kir1.1 (estimated), pH 8.5): 4.07 | pIC50 (Kir1.1; IC50 Kir1.1, pH 7.4): < 3.52 | effect on Kir1.1 current (Kir1.1; pH 7.4, up to 300 μM): essentially insensitive; also recorded: not inhibited | Hill coefficient (NH) Kir1.1 N171D (Kir1.1 N171D): 1.6 | pIC50 (Kir1.1 N171D): 4.08 | inhibition of C25 current (C25 chimera; 30 μM): resistant | inhibition of C25 current (C25 chimera; 100 μM): slightly inhibited | inhibition at 30 µM (C25 chimera; [7]): < 20% | inhibition at 100 µM (C25 chimera; [7]): ~30% | pIC50 (2C9): < 4.52 | protein bound (protein binding, human): > 99% | ancillary pharmacology in 68-assay radioligand binding panel [3]: clean ancillary pharmacology; also recorded: clean profile | Hill coefficient (NH) Kir2.1 D172N (Kir2.1 D172N): 1.3 | pIC50 (Kir2.1 D172N; IC50 Kir2.1 D172N, pH 7.4): 4.82 and 4.81 | activity at L-type calcium channels (L-type calcium channels): inactive | intrinsic clearance [4]: high intrinsic clearance | pIC50 (rKir4.1): 4.12 | pIC50 (2D6): 6.89 | pIC50 (C25 N172D/M175I/C176I): 5.24 | Hill coefficient (NH) C25 triple mutant (C25 N172D/M175I/C176I; pH 7.4): 1.1 | pIC50 (Kir2.1 [5]): 5.59 | pIC50 (hKir2.3): 5.40 | Hill coefficient (NH) Kir1.1 N171D/C175I (Kir1.1 N171D/C175I): 2.3 | pIC50 (Kir1.1 N171D/C175I): 4.19 | pIC50 (hKir2.6): 5.55 | intrinsic clearance (intrinsic clearance, rat): high intrinsic clearance | effect on Kir2.1 currents (Kir2.1 [1]; 3 μM, pH 6.5, 20 minute incubation): no significant effect | time to complete inhibition of Kir2.1 (Kir2.1 [1]; 3 μM, pH 8.5): ≤ 5 min | wash out of compound effects (Kir2.1 [1]; 3 μM, pH 8.5): approximately 10 minutes | pIC50 (Kir2.1 [1]; IC50 Kir2.1, pH 6.5, whole cell): 5.00 | pIC50 (Kir2.1 [1]; IC50 Kir2.1, pH 8.5, manual patch clamp): 6.54 | Hill coefficient (NH) Kir2.1 (Kir2.1 [1]; pH 6.5): 1.8 | Hill coefficient (NH) Kir2.1 (Kir2.1 [1]; pH 7.4): 1.7 | Hill coefficient (NH) Kir2.1 (Kir2.1 [1]; pH 8.5): 4.0 | pIC50 (1A2): 5.48

[Ba+2] [barium, reference compound]
inhibition of Kir1.1 (Kir1.1; 5 mM): completely inhibited | inhibition of Kir1.1 current (Kir1.1; at the end of the recording): over 85%
